“And” between values parts separate entries of the source, which are not always exact repeats. Equal values may be shown once. “Also recorded” adds a separate entry of the source.
What was measured:
[1] = Dose ranging study: toxicity and side effects of TPA doses given clinically by i.v. infusion; format: in vivo, human
Method: Due to the strong local irritation caused by TPA application, TPA was given to patients by intravenous (i.v.) infusion. TPA solution in a sterile syringe was injected into 200 ml of sterile saline and mixed well for i.v. infusion.
One mg TPA in solution was mixed well with 200 ml of sterile saline for intravenous infusion which was completed in 1 h at the rate of 16 μg/min. […] The above symptoms could be alleviated by giving the patients glucocorticoids. […] However, these side effects were short lived and reversible. The cardiac, hepatic, renal and pulmonary functions were all found to be normal.
0.5 mg of TPA in solution was mixed well with 200 ml of saline for intravenous infusion which was completed in 1 h at the rate of 8 μg/min. […] The patients tolerated the lower dose more easily. […] Difficulty in breathing was not observed. The cardiac, hepatic, renal and pulmonary functions were all normal.
0.25 mg of TPA in solution was mixed well with 200 ml of saline for intravenous infusion which was completed in 1 h at the rate of 4 μg/min. […] The cardiac, hepatic, renal and pulmonary functions were all normal.

[2] = Treatment of urinary incontinence (patient cases); format: in vivo, human
Excerpt: Patient twelve has suffered from urinary incontinence for more than 30 years.
Patient one has suffered from urinary incontinence for fifteen years.

[3] = Treatment of Parkinson's disease (patient case); format: in vivo, human; details: 0.19, 0.24, 0.26 mg TPA every other day over 9 weeks
Method: Patient two was diagnosed with Parkinson's disease. They were injected with 1 ampoule containing 0.19 mg of TPA (0.125 mg/m^2) TPA every other day for four weeks, then 0.24 mg of TPA (1.25×0.125 mg/m^2) every other day for 2 weeks, and 0.26 mg of TPA (1.5×0.125 mg/m^2) every other day for an additional 3 weeks.

symptomatic HIV patients = assay: First clinical study of HIV+ patients: symptoms and side effects (incl. case studies); format: in vivo, human
Method: Twelve symptomatic patients (five males and seven females) between the ages of 35 to 52 all of whom were infected with HIV in 1995 through blood transfusion and were refractory to standard treatments for HIV were treated with TPA. Each patient was administered a weight adjusted dosage of TPA (75 μg/sq m) in 200 ml of sterile saline by i.v. over one hour. This dose was administered once daily for the first three days of treatment. Each patient was then given this dose every other day for days 4 to 18 followed by a six month rest period prior to a second course of treatment according to the same protocol.
(§1) Results of treatment of initially symptomatic AIDS patients treated with TPA according to the protocols of Example III, IV, and V. Patients who participated in multiple studies are in some cases identified by more than one patient number. All patient identification numbers correspond to the patient numbers in Tables 1-7.

S180 cell-injected mice = assay: Effect of TPA on peripheral WBC and Hb counts in S180 cell-injected mice; details: for WBC counts: second day after treatment
Method: Sarcoma 180 (S180) cells were injected into Kwen-Ming mice. On the third day, the mice were given TPA interperitoneally (i.p.). at 50, 100 or 200 μg/kg/day for 7 days. On the second day after the treatment was completed, blood samples were taken from the tails of the treated mice for WBC and Hb analyses.

HIV patients = assay: Second clinical study of HIV+ patients: symptoms and side effects (incl. case studies); format: in vivo, human
Method: (§2) Nine of the patients in Example III were given a second treatment of TPA. Of these nine, seven were asymptomatic at the beginning of the second trial. A tenth patient (patient #2a) who was symptomatic and had not previously been treated with TPA was added to the study. Each patient was administered a weight adjusted dosage of TPA (75 μg/sq m) in 200 ml of sterile saline intravenously over one hour. This dosage was given to each patient once a day for ten consecutive days followed by a rest period of ten days for three cycles and a total of 30 doses of TPA. Patients 5a, 6a, and 8a stopped taking anti-AIDS drugs one month prior to beginning the TPA treatment and beginning again one month after the third cycle. Patients 1-4-a, 7a, and 9a-10a continued taking anti-AIDS drugs throughout the treatment.
as §1

HIV = assay: Second clinical study of HIV+ patients: blood HIV count; format: in vivo; details: for BLOOD HIV COUNT LOG VALUE / BLOOD HIV COUNT RESULTS: one value per patient
Method: as §2
Blood samples were taken three days prior to starting treatment, after completing the first 10 day cycle of TPA infusion and again after the last TPA infusion and CD3, CD4, CD8, WBC, RBC, HGB and platelets were measured.

[4] = Reduction of periorbital hyperpigmentation; format: in vivo, human; details: 6 women and 1 man
Method: 6 women and 1 man with excessive periorbital hyperpigmentation were treated with TPA.

[5] = Treatment of individuals who have suffered a stroke (patient cases); format: in vivo, human
Method: Patient seven, suffered a stroke eighteen months prior to treatment with TPA. At the time TPA treatment was initiated, they were unable to walk without a cane, had difficulty with both their left hand and left leg and was tired and weak. They received injections of 1 ampoule containing 0.19 mg of TPA (0.125 mg/m^2) every other day for four weeks, then 0.24 mg of TPA (1.25×0.125 mg/m^2) every other day for 2 weeks, and then 0.26 mg of TPA (1.5×0.125 mg/m^2) every other day for an additional 3 weeks.
Patient four, suffered a stroke seven years prior to beginning treatment with TPA. They received 3-4 injections of 0.19 mg of TPA (0.125 mg/m^2) per week for ten weeks for a total of 35 injections.

[6] = protocol of Example III (first or repeat course)
[7] = protocol of Example III (first or repeat course), individual patients
[8] = twelve symptomatic HIV patients
[9] = TPA 50 μg/kg/day i.p. for 7 days
[10] = TPA 100 μg/kg/day i.p. for 7 days
[11] = TPA 200 μg/kg/day i.p. for 7 days
[12] = protocol of Example IV, individual patients

For `CCCCCCCCCCCCCC(=O)O[C@@H]1[C@@H](C)[C@@]2(O)[C@@H](C=C(CO)C[C@]3(O)C(=O)C(C)=C[C@@H]23)[C@@H]2C(C)(C)[C@]12OC(C)=O` [TPA, 12-O-tetradecanoylphorbol-13-acetate], the “Hb in the urine” value ([1]; 0.25 mg/patient ×4/week) was “No Hb was detected in the urine”, the “cardiac, hepatic, renal and pulmonary functions” value (“cardiac, hepatic” below) ([1]; 0.25 mg/patient ×4/week) was “normal” and the chills and fever ([1]; 0.25 mg/patient ×4/week) was “observed, but to a much lesser extent than with the higher dosages”. For the same molecule, the difficulty in breathing ([1]; 0.25 mg/patient ×4/week) was “no patient suffered difficulty in breathing”, the “Hb in the urine” value ([1]; 0.5 mg/patient ×2/week) was “Occasionally, Hb was detected in patients' urine” and the “cardiac, hepatic” value ([1]; 0.5 mg/patient ×2/week) was “normal”. The difficulty in breathing ([1]; 0.5 mg/patient ×2/week) was “not observed”, the “Hb in the urine” value ([1]; 1 mg/patient/week) was “Hb was detected in the urine” and the bleeding ([1]; 1 mg/patient/week) was “caused a minority of patients to bleed”. For the same molecule, the “cardiac, hepatic” value ([1]; 1 mg/patient/week) was “normal”, the difficulty in breathing ([1]; 1 mg/patient/week) was “several patients suffered for a short period of time difficulty in breathing” and the duration of fever ([1]; 1 mg/patient/week i.v. infusion) was 3 to 5 h. The “patients' temperature (fever)” value ([1]; 1 mg/patient/week i.v. infusion in 1 h) was 37.5-39.5 °C, the duration of chills ([1]; 1 mg/patient/week i.v. infusion, start one hour after administration) was “about 30 min” and the urinary frequency ([2]; nine injections of 0.18 mg of TPA) was “regained normal urinary frequency”. For the same molecule, the urinary frequency ([2]; six injections of 0.18 mg of TPA) was “regained normal urinary frequency”, the tremors [3] was “no longer displaying tremors” and the “duration of shortness of breath” value (symptomatic HIV patients; first treatment with TPA, individual patients) was 15 min. For the same molecule, the “platelet count after TPA treatment” value (symptomatic HIV patients; patient #10, rose from 30,000) was 110,000 per microliter, the “other side effects during TPA treatment (individual patient)” value (symptomatic HIV patients; protocol of Example III) was “did not experience an increase in body temperature or any other side effect; also recorded: mild dizziness and headache; also recorded: serious skin irritation; also recorded: skin irritation due to a leaking needle” and the “symptom free period after TPA therapy (individual patient)” value (symptomatic HIV patients; [6]) was “five months; also recorded: one year”. For the same molecule, the “symptoms after treatment with TPA (individual patient)” value (symptomatic HIV patients; [6]) was “gradual improvement in symptoms; also recorded: their oral lesions, skin thrush and fever disappeared; also recorded: marked improvement in their symptoms; also recorded: The lymph node returned to normal size; also recorded: no improvement in symptoms occurred; also recorded: their symptoms remained unchanged; also recorded: the frequency of their colds decreased; also recorded: their diarrhea was completely gone; also recorded: their dizziness, headache and diarrhea gradually lessened; also recorded: the dizziness, headache, fever and skin thrush were improving and gradually faded away; also recorded: their symptoms disappeared completely; also recorded: all their symptoms disappeared”, the “duration of the increase in body temperature” value (symptomatic HIV patients; [7]) was 1-2 hours and four and 4 hours and the “increase in body temperature during TPA treatment” value (symptomatic HIV patients; [7]) was 38-39 °C and 38 °C and 38.5 °C. The “additional patients with a decrease in symptoms” value (symptomatic HIV patients; [8]) was “Three additional patients had a decrease in symptoms”, the “patients who became symptom free” value (symptomatic HIV patients; [8]) was “Eight patients became symptom free” and the “patients with significant improvement following treatment” value (symptomatic HIV patients; twelve symptomatic HIV patients, 75 μg/sq m i.v.) was “eleven of the patients showed significant improvement”. For the same molecule, the Hb (S180 cell-injected mice; [9]) was 136 ± 11 g/L, the WBC counts (S180 cell-injected mice; [9]) was 16.1±7.4 ×10^9/L and the Hb (S180 cell-injected mice; [10]) was 149 ± 12 g/L. For the same molecule, the WBC counts (S180 cell-injected mice; [10]) was 18.7±3.0 ×10^9/L, the Hb (S180 cell-injected mice; [11]) was 149 ± 10 g/L and the WBC counts (S180 cell-injected mice; [11]) was 20.7±3.4 ×10^9/L. The “AIDS symptoms in the symptomatic patients (#9a, #2a)” value (HIV patients; after three cycles of TPA) was “experienced a disappearance of AIDS symptoms”, the “AIDS symptoms in the other eight patients” value (HIV patients; began the study without AIDS symptoms) was “symptom free at the end of the study” and the “adverse effects during TPA treatment (individual patient)” value (HIV patients; protocol of Example IV) was “no adverse effects; also recorded: no side effects”. The “symptoms after treatment with TPA (individual patient)” value (HIV patients; protocol of Example IV) was “continues to have no symptoms of AIDS; also recorded: the fever and diarrhea were no longer a problem; also recorded: does not have any symptoms of AIDS; also recorded: has not had any symptoms of AIDS; also recorded: Her mental and physical condition has improved considerably”, the “duration of the increase in body temperature” value (HIV patients; [12]) was “two” and the “increase in body temperature during TPA treatment” value (HIV patients; [12]) was 38.5 degrees centigrade. The “BLOOD HIV COUNT LOG VALUE” (HIV; after first cycle TPA infusion) was 5.490 and 2.371 and 4.825 and 5.217 and 5.450 and 5.475, the “BLOOD HIV COUNT RESULTS” value (HIV; after first cycle TPA infusion) was 3.09 × 10^5 copies/ml and lower the 500 copies/ml and undetectable (4×) and 6.68 × 10^4 copies/ml and 1.65 × 10^5 copies/ml and 2.82 × 10^5 copies/ml and 2.99 × 10^5 copies/ml and the “BLOOD HIV COUNT LOG VALUE” (HIV; after third cycle TPA infusion) was 5.966 and 3.980 and 3.376 and 4.792 and 5.371 and 5.270 and 5.973. For the same molecule, the “BLOOD HIV COUNT RESULTS” value (HIV; after third cycle TPA infusion) was 9.24 × 10^5 copies/ml and 9.55 × 10^3 copies/ml and 2.38 × 10^3 copies/ml and undetectable (3×) and 6.20 × 10^4 copies/ml and 2.35 × 10^5 copies/ml and 1.86 × 10^5 copies/ml and 9.41 × 10^5 copies/ml, the “viral load of HIV (summary)” value (HIV; ten patients) was “undetectable in three patients (<200); it increased somewhat in six others and was reduced in one” and the “inflammation and hyperpigmentation in the periorbital area” value [4] was “reduced the inflammation and hyperpigmentation in the periorbital area”. The recovery after stroke ([5]; stroke eighteen months before, 0.19, 0.24, 0.26 mg TPA every other day over 9 weeks) was “recovered fully”, the “mobility in their face” value ([5]; stroke seven years before, 35 injections of 0.19 mg TPA) was “regained mobility in their face” and the “improvement in the mobility of their right side” value ([5]; stroke seven years before, 35 injections of 0.19 mg TPA in ten weeks) was 80%.

— patent US9636317B2, “Compositions and methods of use of phorbol esters” (priority 2007, dated 2017)
